Consider four compounds from patent US11572296B1, “Method for extending time of activity of chlorite-based biocides” (priority 2020, dated 2023).

The test system of assay [1] is bacteria. As to conditions: properties of oxychloro species; cited from earlier work.
For assay [2], the system named is bacteria. The experiment in a line: Antimicrobial activity of oxychloro species (general properties). As to conditions: treated water, component of the formulation.
From the text: The potency and longevity of biocidal activity for this formulation is controlled by varying the ratios of chlorate and acid which provide different profiles of the antimicrobial activities.

Take `[O-][Cl+2]([O-])O` [ClO3^−, Chlorate ion]: the Biocidal potency entry in the assay on bacteria [1] is on record as “low”. Regarding `[Na+].[O-][Cl+2]([O-])[O-]` [sodium chlorate], in the assay with bacteria [2], the “time range of antimicrobial impact / longevity” value was “weeks to months”. For the compound Chlorine dioxide [ClO2], the “time range of antimicrobial impact / longevity” value in the assay with bacteria [2] was “within seconds”. Still for that read-out and setting: as for sodium chlorite, the entry is “hours to days”.
